How the values were obtained:
MDA-MB-231 = assay: Cytotoxicity against human MDA-MB-231 cells assessed as cell inhibition measured after 72 hrs by MTT assay; type: functional, cell-based; conditions: MDA-MB-231, 72 h
HepG2 = assay: Cytotoxicity against human HepG2 cells assessed as cell inhibition measured after 72 hrs by MTT assay; type: functional, cell-based; conditions: HepG2, 72 h
SGC-7901 = assay: Cytotoxicity against human SGC-7901 cells assessed as cell inhibition measured after 72 hrs by MTT assay; type: functional, cell-based; conditions: SGC-7901, 72 h
LS180 = assay: Cytotoxicity against human LS180 cells assessed as cell inhibition measured after 72 hrs by MTT assay; type: functional, cell-based; conditions: LS180, 72 h
A549 = assay: Cytotoxicity against human A549 cells assessed as cell inhibition measured after 72 hrs by MTT assay; type: functional, cell-based; conditions: A549, 72 h
[1] = Drug uptake in human MDA-MB-231 cells assessed as accumulation by measuring lysosome-specific fluorescent signals in presence of excess H1 at 1 uM incubated for 1 hrs by confocal laser-scanning microscopic analysis; type: ADME, cell-based; conditions: mda-mb-231, 1 h

Structure (SMILES)	IC50 (MDA-MB-231)	IC50 (HepG2)	IC50 (SGC-7901)	IC50 (LS180)	IC50 (A549)	Drug uptake [1]
O=C(c1ccccc1)c1nccc2c3ccccc3n(Cc3cccc(F)c3)c12	33.5 µM	28.4 µM	28.1 µM	20 µM	31.6 µM	Not Active
Cc1cccc(Cn2c3ccccc3c3ccnc(C(=O)c4ccc(O)cc4)c32)c1	65.6 µM	38.8 µM	27.5 µM	25.5 µM	26.8 µM	

From ChEMBL document CHEMBL5385881, “Design, synthesis, and discovery of Eudistomin Y derivatives as lysosome-targeted antiproliferation agents” (Eur J Med Chem, 2023)
